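Five concentrations, 48 hours, 96-well plates. GI50 marks 50% less growth.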 Calls of active or inactive are those of the source. Cut-off read from the data, not from the text of the source: active = GI50 up to about 1.1 µM and inactive = higher.
Assays:
Experiment in all cases: growth of human tumour cells (NCI), 48 h
RPMI-8226 = test system: RPMI-8226
PC-3 = test system: PC-3
Hs-578T = test system: Hs-578T
SR = test system: SR
EKVX = test system: EKVX
A549 = test system: A549
TK-10 = test system: TK-10
HOP-62 = test system: HOP-62
MCF7 = test system: MCF7
HCT-116 = test system: HCT-116
MDA-MB-435 = test system: MDA-MB-435
A498 = test system: A498
IGROV-1 = test system: IGROV-1
OVCAR-4 = test system: OVCAR-4
CCRF-CEM = test system: CCRF-CEM
SNB-19 = test system: SNB-19
OVCAR-5 = test system: OVCAR-5
OVCAR-8 = test system: OVCAR-8
NCI-H226 = test system: NCI-H226
HT-29 = test system: HT-29

| Compound | GI50 (RPMI-8226) | GI50 (PC-3) | GI50 (Hs-578T) | GI50 (SR) | GI50 (EKVX) | GI50 (A549) | GI50 (TK-10) | GI50 (HOP-62) | GI50 (MCF7) | GI50 (HCT-116) | GI50 (MDA-MB-435) | GI50 (A498) | GI50 (IGROV-1) | GI50 (OVCAR-4) | GI50 (CCRF-CEM) | GI50 (SNB-19) | GI50 (OVCAR-5) | GI50 (OVCAR-8) | GI50 (NCI-H226) | GI50 (HT-29) |
| --- | --- | --- | --- | --- | --- | --- | --- | --- | --- | --- | --- | --- | --- | --- | --- | --- | --- | --- | --- | --- |
| CC(C)C(OC(=O)c1ccc(NCC2=CC(=O)C=CC2=O)cc1)C(C)C | 3.15 µM (inactive) | 8.09 µM (inactive) | 3.68 µM (inactive) | 3.23 µM (inactive) | 8.26 µM (inactive) | 25.2 µM (inactive) | 4.25 µM (inactive) | 18.3 µM (inactive) | 7.93 µM (inactive) | 11.7 µM (inactive) | 4.75 µM (inactive) | 9.12 µM (inactive) | 1.81 µM (inactive) | 3.64 µM (inactive) | 0.474 µM (active) | 18.3 µM (inactive) | 13.3 µM (inactive) | 3.03 µM (inactive) | 4.24 µM (inactive) | 10.7 µM (inactive) |
| Cc1c(C(=O)c2ccccc2)[n+]([O-])c2cc(Cl)c(Cl)cc2[n+]1[O-] | 4.7 µM (inactive) | 17.4 µM (inactive) | 6.34 µM (inactive) | 1.54 µM (inactive) | 13.5 µM (inactive) | 13 µM (inactive) | 11.5 µM (inactive) | 15.9 µM (inactive) | 10.7 µM (inactive) | 13.5 µM (inactive) | 11.9 µM (inactive) | 19.6 µM (inactive) | 1.97 µM (inactive) | 4.11 µM (inactive) | 19.3 µM (inactive) | 16.6 µM (inactive) | 17.9 µM (inactive) | 10 µM (inactive) | 2.51 µM (inactive) | 14.4 µM (inactive) |
| COC1=C(C)C(=O)c2c(c(COC(N)=O)c3n2CC(OC(C)=O)C3OC(C)=O)C1=O (centres undefined) | 0.0577 µM (active) | 0.131 µM (active) | 0.239 µM (active) | < 0.01 µM (active) | 0.202 µM (active) | 0.136 µM (active) | 0.388 µM (active) | 0.126 µM (active) | 0.0301 µM (active) | 0.0204 µM (active) | 0.165 µM (active) | 0.593 µM (active) | 0.0785 µM (active) | 0.279 µM (active) | 0.153 µM (active) | 0.433 µM (active) | 0.267 µM (active) | 0.0789 µM (active) | 0.297 µM (active) | 0.036 µM (active) |
| O=[N+]([O-])c1ccc(CSCc2ccc(Cl)cc2)cc1 | 55.7 µM (inactive) | > 100 µM (inactive) | > 100 µM (inactive) | 23.8 µM (inactive) | > 100 µM (inactive) | > 100 µM (inactive) | > 100 µM (inactive) | > 100 µM (inactive) | > 100 µM (inactive) | 92.3 µM (inactive) | > 100 µM (inactive) | > 100 µM (inactive) | > 100 µM (inactive) | > 100 µM (inactive) | 14.5 µM (inactive) | > 100 µM (inactive) | > 100 µM (inactive) | > 100 µM (inactive) | > 100 µM (inactive) | 78.3 µM (inactive) |
| CCOC(=O)CCC(NC(=O)c1ccc(OCc2ccc3nc(OC)c(OC)nc3c2)cc1)C(=O)OCC (centres undefined) | 70.8 µM (inactive) | 36.4 µM (inactive) | 33.9 µM (inactive) | 45.1 µM (inactive) | – | > 100 µM (inactive) | 35.2 µM (inactive) | > 100 µM (inactive) | 35.1 µM (inactive) | 50.7 µM (inactive) | 27.3 µM (inactive) | 71 µM (inactive) | 55.8 µM (inactive) | – | 24 µM (inactive) | 74.3 µM (inactive) | > 100 µM (inactive) | > 100 µM (inactive) | > 100 µM (inactive) | > 100 µM (inactive) |
| Cc1cn([C@@H]2O[C@H](CO)[C@@H](O)[C@@H]2O)c(=O)[nH]c1=O | > 1000 µM (inactive) | > 1000 µM (inactive) | > 1000 µM (inactive) | > 1000 µM (inactive) | > 1000 µM (inactive) | > 1000 µM (inactive) | > 1000 µM (inactive) | > 1000 µM (inactive) | > 1000 µM (inactive) | > 1000 µM (inactive) | > 1000 µM (inactive) | > 1000 µM (inactive) | > 1000 µM (inactive) | > 1000 µM (inactive) | > 1000 µM (inactive) | > 1000 µM (inactive) | > 1000 µM (inactive) | > 1000 µM (inactive) | > 1000 µM (inactive) | > 1000 µM (inactive) |
| CC(C)NC(=O)OCc1c(COC(=O)NC(C)C)c(-c2ccc[n+](COC(=O)C3CCCCC3)c2)n2c1CCC2 | > 100 µM (inactive) | 48.6 µM (inactive) | > 100 µM (inactive) | > 100 µM (inactive) | > 100 µM (inactive) | 82 µM (inactive) | 94.6 µM (inactive) | 37.7 µM (inactive) | 36.6 µM (inactive) | 56.4 µM (inactive) | > 100 µM (inactive) | 29.2 µM (inactive) | > 100 µM (inactive) | 40.6 µM (inactive) | > 100 µM (inactive) | > 100 µM (inactive) | 78.3 µM (inactive) | 51.2 µM (inactive) | > 100 µM (inactive) | 90.6 µM (inactive) |
| O=[N+]([O-])c1cc2oc(CSc3ccccc3)nc2cc1Cl | 40.9 µM (inactive) | 48 µM (inactive) | 51.6 µM (inactive) | 33.3 µM (inactive) | 30.7 µM (inactive) | 36.9 µM (inactive) | 35.8 µM (inactive) | 41.7 µM (inactive) | 42.8 µM (inactive) | 29.4 µM (inactive) | 32.4 µM (inactive) | 25.5 µM (inactive) | 33.9 µM (inactive) | 34.4 µM (inactive) | 37.5 µM (inactive) | 45.1 µM (inactive) | 31.3 µM (inactive) | 33.5 µM (inactive) | 29.6 µM (inactive) | 28.1 µM (inactive) |
| O=C(CC1(O)C(=O)Nc2c(Cl)ccc(Cl)c21)c1ccco1 (centres undefined) | 16.8 µM (inactive) | 28.2 µM (inactive) | 26 µM (inactive) | 4.38 µM (inactive) | 22.6 µM (inactive) | 23 µM (inactive) | > 53 µM (inactive) | 29.6 µM (inactive) | 14.9 µM (inactive) | 14 µM (inactive) | 1.85 µM (inactive) | 30.4 µM (inactive) | 18.3 µM (inactive) | 7.06 µM (inactive) | 5.09 µM (inactive) | 42.3 µM (inactive) | 20.9 µM (inactive) | 27.2 µM (inactive) | 19.7 µM (inactive) | 22.4 µM (inactive) |
| COc1cc(/C=C2\N=C(c3ccccc3)N(C3Nc4cc5c(cc4S3)NC(N3C(=O)/C(=C/c4cc(OC)c(OC)c(OC)c4)N=C3c3ccccc3)S5)C2=O)cc(OC)c1OC (centres undefined) | 28.8 µM (inactive) | 82.6 µM (inactive) | > 100 µM (inactive) | 20.5 µM (inactive) | 44.1 µM (inactive) | 23.6 µM (inactive) | > 100 µM (inactive) | > 100 µM (inactive) | 46.7 µM (inactive) | 77.6 µM (inactive) | > 100 µM (inactive) | 68.4 µM (inactive) | > 100 µM (inactive) | 70.5 µM (inactive) | – | – | > 100 µM (inactive) | 83.9 µM (inactive) | > 100 µM (inactive) | 74.6 µM (inactive) |
| COc1ccc(/C=C/C(=O)c2nc3ccccc3[nH]2)cc1 | 3.8 µM (inactive) | 21.8 µM (inactive) | 21.3 µM (inactive) | 2.71 µM (inactive) | 15.1 µM (inactive) | 24.9 µM (inactive) | 18.1 µM (inactive) | 25.4 µM (inactive) | 8.38 µM (inactive) | 5.37 µM (inactive) | 11.7 µM (inactive) | 26.4 µM (inactive) | 6.07 µM (inactive) | 21.1 µM (inactive) | > 100 µM (inactive) | 24.2 µM (inactive) | 22 µM (inactive) | 21 µM (inactive) | 5.32 µM (inactive) | 7.03 µM (inactive) |
| N=C(N)N/N=C/c1c(-c2cc([N+](=O)[O-])c(Cl)cc2Cl)nc2n1CCS2 | 7.6 µM (inactive) | 13.2 µM (inactive) | 27.9 µM (inactive) | 0.951 µM (active) | 40.9 µM (inactive) | 32.7 µM (inactive) | 15.5 µM (inactive) | 42.4 µM (inactive) | 2.67 µM (inactive) | 5.01 µM (inactive) | 9.38 µM (inactive) | 77.3 µM (inactive) | 16.4 µM (inactive) | 10.4 µM (inactive) | 2.84 µM (inactive) | 3.87 µM (inactive) | 79.3 µM (inactive) | 26.5 µM (inactive) | 34.4 µM (inactive) | 7.08 µM (inactive) |
| C[n+]1c2ccccc2n2c3ccccc3c(NCCCN3CCOCC3)c(C#N)c21 | 0.726 µM (active) | 1.31 µM (inactive) | 1.41 µM (inactive) | 2.81 µM (inactive) | 2.9 µM (inactive) | 3.33 µM (inactive) | 1.58 µM (inactive) | 1.27 µM (inactive) | 0.564 µM (active) | 0.703 µM (active) | 1.78 µM (inactive) | 8.87 µM (inactive) | – | 1.56 µM (inactive) | 8.17 µM (inactive) | 3.08 µM (inactive) | 1.44 µM (inactive) | 0.843 µM (active) | 1.86 µM (inactive) | 2.37 µM (inactive) |
| O=C1c2ccccc2C2(c3ccc(Cl)cc3)N[C@@H]3CCCC[C@@H]3N12 (some centres undefined) | > 100 µM (inactive) | > 100 µM (inactive) | > 100 µM (inactive) | > 100 µM (inactive) | > 100 µM (inactive) | > 100 µM (inactive) | > 100 µM (inactive) | > 100 µM (inactive) | > 100 µM (inactive) | > 100 µM (inactive) | > 100 µM (inactive) | > 100 µM (inactive) | > 100 µM (inactive) | > 100 µM (inactive) | > 100 µM (inactive) | > 100 µM (inactive) | > 100 µM (inactive) | > 100 µM (inactive) | > 100 µM (inactive) | – |

Source: ChEMBL document CHEMBL1201862, “PubChem BioAssay data set” (2004)
